# Article PMC5218480 (PLoS ONE, 2017)
# Tested on: MV-4-11 cells
# Assay: Gene expression microarray analysis (Affymetrix PrimeView) and GSEA
# Format: cell-based, human
# Parameters: RFU PODN (11730768_x_at) / Fold change /veh PODN (11730768_x_at) / RFU LINC00158 (11744669_a_at) / Fold change /veh LINC00158 (11744669_a_at) / RFU DUSP10 (11751237_a_at) / Fold change /veh DUSP10 (11751237_a_at) / RFU ID3 (11757404_x_at) / Fold change /veh ID3 (11757404_x_at) / RFU PLEKHG5 (11737974_s_at) / Fold change /veh PLEKHG5 (11737974_s_at) / RFU LRRC4B (11730491_at) / Fold change /veh LRRC4B (11730491_at) / RFU GIMAP4 (11747438_a_at) / Fold change /veh GIMAP4 (11747438_a_at) / RFU KRT8 (11758183_x_at) / Fold change /veh KRT8 (11758183_x_at) / RFU CNN1 (11734310_a_at) / Fold change /veh CNN1 (11734310_a_at) / RFU VPS37D (11726825_at) / Fold change /veh VPS37D (11726825_at) / RFU C10orf10 (11716522_x_at) / Fold change /veh C10orf10 (11716522_x_at) / RFU KIR2DL2 /// KIR2DL4 /// KIR2DL5A /// KIR2DL5B /// KIR2DS1 /// KIR2DS2 /// KIR2DS3 /// KIR2DS4 /// KIR3DL3 /// KIR3DL3 /// KIR3DS1 (11738374_at) / Fold change /veh KIR2DL2 /// KIR2DL4 /// KIR2DL5A /// KIR2DL5B /// KIR2DS1 /// KIR2DS2 /// KIR2DS3 /// KIR2DS4 /// KIR3DL3 /// KIR3DL3 /// KIR3DS1 (11738374_at) / RFU C1QL1 (11718748_at) / Fold change /veh C1QL1 (11718748_at) / RFU TMPRSS4 (11747572_a_at) / Fold change /veh TMPRSS4 (11747572_a_at) / RFU HAMP (11756126_x_at) / Fold change /veh HAMP (11756126_x_at) / RFU RNFT2 (11725882_a_at) / Fold change /veh RNFT2 (11725882_a_at) / RFU NR4A2 (11747474_a_at) / Fold change /veh NR4A2 (11747474_a_at) / RFU ABCC12 (11746883_a_at) / Fold change /veh ABCC12 (11746883_a_at) / RFU TMEM136 (11760407_x_at) / Fold change /veh TMEM136 (11760407_x_at) / RFU CLDN22 /// WWC2 (11732394_at) / Fold change /veh CLDN22 /// WWC2 (11732394_at) / RFU HLA-DPB1 (11760878_x_at) / Fold change /veh HLA-DPB1 (11760878_x_at) / RFU SPINT1 (11716480_a_at) / Fold change /veh SPINT1 (11716480_a_at) / RFU GAP43 (11754022_s_at) / Fold change /veh GAP43 (11754022_s_at) / RFU A4GNT (11735810_at) / Fold change /veh A4GNT (11735810_at) / RFU PRB3 (11715151_x_at) / Fold change /veh PRB3 (11715151_x_at) / RFU TUBB4B (11761932_at) / Fold change /veh TUBB4B (11761932_at) / RFU CAPN14 (11732068_a_at) / Fold change /veh CAPN14 (11732068_a_at) / RFU TMCC2 (11721928_a_at) / Fold change /veh TMCC2 (11721928_a_at) / RFU IRGQ (11745062_a_at) / Fold change /veh IRGQ (11745062_a_at) / RFU FAM174B (11720279_a_at) / Fold change /veh FAM174B (11720279_a_at) / RFU TMPRSS4 (11748680_a_at) / Fold change /veh TMPRSS4 (11748680_a_at) / RFU FAM212B (11763350_a_at) / Fold change /veh FAM212B (11763350_a_at) / RFU PLEKHG5 (11743358_a_at) / Fold change /veh PLEKHG5 (11743358_a_at) / RFU ZSCAN30 (11745921_a_at) / Fold change /veh ZSCAN30 (11745921_a_at) / RFU CMKLR1 (11741424_a_at) / Fold change /veh CMKLR1 (11741424_a_at) / RFU LOC101060620 /// MAPK8IP1 (11723275_at) / Fold change /veh LOC101060620 /// MAPK8IP1 (11723275_at) / RFU SPTSSB (11747773_x_at) / Fold change /veh SPTSSB (11747773_x_at) / RFU PRSS12 (11739890_at) / Fold change /veh PRSS12 (11739890_at) / RFU BIN1 (11741810_x_at) / Fold change /veh BIN1 (11741810_x_at) / RFU WNT11 (11732464_a_at) / Fold change /veh WNT11 (11732464_a_at) / RFU C10orf10 (11716521_a_at) / Fold change /veh C10orf10 (11716521_a_at) / RFU C5orf56 (11738089_at) / Fold change /veh C5orf56 (11738089_at) / RFU CYB561 (11721691_x_at) / Fold change /veh CYB561 (11721691_x_at) / RFU ANKRD19P (11752326_a_at) / Fold change /veh ANKRD19P (11752326_a_at) / RFU OR2T12 /// OR2T33 /// OR2T8 (11738714_s_at) / Fold change /veh OR2T12 /// OR2T33 /// OR2T8 (11738714_s_at) / RFU VCAN (11748164_a_at) / Fold change /veh VCAN (11748164_a_at) / RFU JSRP1 (11732532_at) / Fold change /veh JSRP1 (11732532_at) / RFU KRTAP10-11 (11738290_x_at) / Fold change /veh KRTAP10-11 (11738290_x_at) / RFU MYO3A (11730013_a_at) / Fold change /veh MYO3A (11730013_a_at) / RFU EBF3 (11725865_a_at) / Fold change /veh EBF3 (11725865_a_at) / RFU CAMK2N1 (11719241_x_at) / Fold change /veh CAMK2N1 (11719241_x_at) / RFU C5orf56 (11738088_a_at) / Fold change /veh C5orf56 (11738088_a_at) / RFU OLFML3 (11715873_a_at) / Fold change /veh OLFML3 (11715873_a_at) / RFU LOC100653217 /// NTM (11731650_a_at) / Fold change /veh LOC100653217 /// NTM (11731650_a_at) / RFU MAPK11 (11762145_a_at) / Fold change /veh MAPK11 (11762145_a_at) / RFU FIZ1 (11724087_x_at) / Fold change /veh FIZ1 (11724087_x_at) / RFU OASL (11726364_x_at) / Fold change /veh OASL (11726364_x_at) / RFU SOX15 (11748057_x_at) / Fold change /veh SOX15 (11748057_x_at) / RFU CD79A (11719716_a_at) / Fold change /veh CD79A (11719716_a_at) / RFU HIST1H1D (11736915_at) / Fold change /veh HIST1H1D (11736915_at) / RFU CASKIN2 (11723855_a_at) / Fold change /veh CASKIN2 (11723855_a_at) / RFU LOC730098 (11760151_x_at) / Fold change /veh LOC730098 (11760151_x_at) / RFU OR4N2 (11742367_at) / Fold change /veh OR4N2 (11742367_at) / RFU PRRT2 (11749266_a_at) / Fold change /veh PRRT2 (11749266_a_at) / RFU SNX32 (11753110_a_at) / Fold change /veh SNX32 (11753110_a_at) / RFU CDHR5 (11726645_a_at) / Fold change /veh CDHR5 (11726645_a_at) / RFU RCAN1 (11760418_a_at) / Fold change /veh RCAN1 (11760418_a_at) / RFU FAM167A (11723789_a_at) / Fold change /veh FAM167A (11723789_a_at) / RFU FAM26E (11764081_at) / Fold change /veh FAM26E (11764081_at) / RFU ISYNA1 (11749810_s_at) / Fold change /veh ISYNA1 (11749810_s_at) / RFU ACY1 (11761880_at) / Fold change /veh ACY1 (11761880_at) / RFU 11764098_at / Fold change /veh 11764098_at / RFU SAMD14 (11745864_x_at) / Fold change /veh SAMD14 (11745864_x_at) / RFU NPB (11741838_a_at) / Fold change /veh NPB (11741838_a_at) / RFU TMPRSS6 (11731388_a_at) / Fold change /veh TMPRSS6 (11731388_a_at) / RFU KRTAP10-2 (11738614_at) / Fold change /veh KRTAP10-2 (11738614_at) / RFU ARHGAP8 /// PRR5-ARHGAP8 (11727945_x_at) / Fold change /veh ARHGAP8 /// PRR5-ARHGAP8 (11727945_x_at) / RFU KRTAP5-7 /// NADSYN1 (11734609_at) / Fold change /veh KRTAP5-7 /// NADSYN1 (11734609_at) / RFU RASL12 (11751679_a_at) / Fold change /veh RASL12 (11751679_a_at) / RFU CDKN2B (11736163_a_at) / Fold change /veh CDKN2B (11736163_a_at) / RFU PRF1 (11729649_at) / Fold change /veh PRF1 (11729649_at) / RFU, ZNF638 /// ZNF638-IT1 / Fold change vs veh, ZNF638 /// ZNF638-IT1 / RFU, PANK3 / Fold change vs veh, PANK3 / RFU, SH3YL1 / Fold change vs veh, SH3YL1 / RFU, ZEB2 / Fold change vs veh, ZEB2 / RFU, NRIP1 / Fold change vs veh, NRIP1 / RFU, PTTG1IP / Fold change vs veh, PTTG1IP / RFU, CAPN2 / Fold change vs veh, CAPN2 / RFU, MED14 / Fold change vs veh, MED14 / RFU, SNORA58 / Fold change vs veh, SNORA58 / RFU, C1orf63 / Fold change vs veh, C1orf63 / RFU, LRRFIP1 / Fold change vs veh, LRRFIP1 / RFU, NDUFAF7 / Fold change vs veh, NDUFAF7 / RFU, SLC12A2 / Fold change vs veh, SLC12A2 / RFU, IBTK / Fold change vs veh, IBTK / RFU, ESF1 / Fold change vs veh, ESF1 / Fold change vs veh, TMEM50B / RFU, TAOK1 / Fold change vs veh, TAOK1 / RFU, ACBD3 / Fold change vs veh, ACBD3 / RFU, TMA16 / Fold change vs veh, TMA16 / RFU, RWDD3 / Fold change vs veh, RWDD3 / RFU, BCAT1 / Fold change vs veh, BCAT1 / RFU, EDEM3 / Fold change vs veh, EDEM3 / RFU, TMEM33 / Fold change vs veh, TMEM33 / RFU, WDR75 / Fold change vs veh, WDR75 / RFU, AHCTF1 / Fold change vs veh, AHCTF1 / RFU, TFRC / Fold change vs veh, TFRC / RFU, ZDHHC17 / Fold change vs veh, ZDHHC17 / RFU, NOM1 / Fold change vs veh, NOM1 / RFU, ARL8B / Fold change vs veh, ARL8B / RFU, ZBTB11 / Fold change vs veh, ZBTB11 / RFU, TAMM41 / Fold change vs veh, TAMM41 / RFU, KIAA1704 /// LOC100996395 / Fold change vs veh, KIAA1704 /// LOC100996395 / RFU, ING1 / Fold change vs veh, ING1 / RFU, TRMT61B / Fold change vs veh, TRMT61B / RFU, FUBP3 / Fold change vs veh, FUBP3 / RFU, TP53 / Fold change vs veh, TP53 / RFU, TNKS2 / Fold change vs veh, TNKS2 / RFU, ZFP14 / Fold change vs veh, ZFP14 / RFU, ACTR2 / Fold change vs veh, ACTR2 / RFU, PPP3R1 / Fold change vs veh, PPP3R1 / RFU, PIK3R1 / Fold change vs veh, PIK3R1 / RFU, HNRNPA1 / Fold change vs veh, HNRNPA1 / RFU, RNF170 / Fold change vs veh, RNF170 / RFU, ZNF28 / Fold change vs veh, ZNF28 / RFU, RNGTT / Fold change vs veh, RNGTT / RFU, OGT / Fold change vs veh, OGT / RFU, BRD1 / Fold change vs veh, BRD1 / RFU, MARS / Fold change vs veh, MARS / RFU, ZNF655 / Fold change vs veh, ZNF655 / RFU, FAHD1 / Fold change vs veh, FAHD1 / RFU, BDP1 / Fold change vs veh, BDP1 / RFU, LRRCC1 / Fold change vs veh, LRRCC1 / RFU, ARID1A / Fold change vs veh, ARID1A / RFU, ZNF146 / Fold change vs veh, ZNF146 / RFU, ZNF330 / Fold change vs veh, ZNF330 / RFU, GPN3 / Fold change vs veh, GPN3 / RFU, C9orf123 / Fold change vs veh, C9orf123 / RFU, N4BP2L2 / Fold change vs veh, N4BP2L2 / RFU, ARFIP1 / Fold change vs veh, ARFIP1 / RFU, FAM179B / Fold change vs veh, FAM179B / RFU, BCL10 / Fold change vs veh, BCL10 / RFU, UHRF1BP1L / Fold change vs veh, UHRF1BP1L / RFU, BET1 / Fold change vs veh, BET1 / RFU, CNOT2 / Fold change vs veh, CNOT2 / RFU, ZNF268 / Fold change vs veh, ZNF268 / Fold change vs veh, ZNF507 / RFU, DGCR2 / Fold change vs veh, DGCR2 / RFU, WDSUB1 / Fold change vs veh, WDSUB1 / Fold change vs veh, HSP90B1 /// MIR3652 / RFU, ADSS / Fold change vs veh, ADSS / RFU, GK / Fold change vs veh, GK / RFU, ZNF148 / Fold change vs veh, ZNF148 / RFU, TAF9 / Fold change vs veh, TAF9 / RFU, SLC1A5 / Fold change vs veh, SLC1A5 / RFU, SLMO2 / Fold change vs veh, SLMO2 / RFU, ABCC4 / Fold change vs veh, ABCC4 / RFU, LOC101060439 /// RAP1B / Fold change vs veh, LOC101060439 /// RAP1B / RFU, RFX7 / Fold change vs veh, RFX7 / RFU, GTPBP10 / Fold change vs veh, GTPBP10 / RFU, CNEP1R1 / Fold change vs veh, CNEP1R1 / RFU, BIVM-ERCC5 /// ERCC5 / Fold change vs veh, BIVM-ERCC5 /// ERCC5 / RFU, ILF3 / Fold change vs veh, ILF3 / RFU 11762660_at / Fold change /veh 11762660_at / RFU VCAN (11757783_s_at) / Fold change /veh VCAN (11757783_s_at) / RFU DDX43 (11728927_at) / Fold change /veh DDX43 (11728927_at) / RFU KRT8 (11758188_x_at) / Fold change /veh KRT8 (11758188_x_at) / RFU NKD1 (11759106_at) / Fold change /veh NKD1 (11759106_at) / RFU SRD5A1 (11742802_a_at) / Fold change /veh SRD5A1 (11742802_a_at) / RFU TPSAB1 /// TPSB2 (11721975_s_at) / Fold change /veh TPSAB1 /// TPSB2 (11721975_s_at) / RFU GSTM3 (11746129_a_at) / Fold change /veh GSTM3 (11746129_a_at) / RFU IL23R (11737362_x_at) / Fold change /veh IL23R (11737362_x_at) / RFU TMEM51 (11727254_a_at) / Fold change /veh TMEM51 (11727254_a_at) / RFU PIWIL2 (11732686_x_at) / Fold change /veh PIWIL2 (11732686_x_at) / RFU ORM1 (11744905_x_at) / Fold change /veh ORM1 (11744905_x_at) / RFU CCDC152 (11743942_at) / Fold change /veh CCDC152 (11743942_at) / RFU ECM1 (11717891_a_at) / Fold change /veh ECM1 (11717891_a_at) / RFU IL23R (11748794_a_at) / Fold change /veh IL23R (11748794_a_at) / RFU TNFAIP8L3 (11732012_x_at) / Fold change /veh TNFAIP8L3 (11732012_x_at) / RFU MBOAT4 (11741988_at) / Fold change /veh MBOAT4 (11741988_at) / RFU 11764193_at / Fold change /veh 11764193_at / RFU TMEM53 (11763286_at) / Fold change /veh TMEM53 (11763286_at) / RFU MAGEB2 (11727129_at) / Fold change /veh MAGEB2 (11727129_at) / RFU TMEM200A (11744735_a_at) / Fold change /veh TMEM200A (11744735_a_at) / RFU CCDC152 (11751479_a_at) / Fold change /veh CCDC152 (11751479_a_at) / RFU FAM211A (11726209_a_at) / Fold change /veh FAM211A (11726209_a_at) / RFU RGS16 (11746705_a_at) / Fold change /veh RGS16 (11746705_a_at) / RFU VCAN (11755009_s_at) / Fold change /veh VCAN (11755009_s_at) / RFU RHOB (11743442_s_at) / Fold change /veh RHOB (11743442_s_at) / RFU RGS16 (11720943_a_at) / Fold change /veh RGS16 (11720943_a_at) / RFU RGS16 (11720944_at) / Fold change /veh RGS16 (11720944_at) / RFU, VPS4B / Fold change vs veh, VPS4B / RFU, CREB1 / Fold change vs veh, CREB1 / RFU, DNAJC13 / Fold change vs veh, DNAJC13 / RFU, GNAQ / Fold change vs veh, GNAQ / RFU, CDK5R1 / Fold change vs veh, CDK5R1 / RFU, ZRANB3 / Fold change vs veh, ZRANB3 / RFU, CUL4A / Fold change vs veh, CUL4A / RFU, CCNY / Fold change vs veh, CCNY / RFU, UFL1 / Fold change vs veh, UFL1 / RFU, COG3 / Fold change vs veh, COG3 / RFU, DIAPH2 / Fold change vs veh, DIAPH2 / RFU, SKA2 / Fold change vs veh, SKA2 / RFU, AFF3 / Fold change vs veh, AFF3 / RFU, LMF1 / Fold change vs veh, LMF1 / RFU, IPO11 / Fold change vs veh, IPO11 / RFU, DFFB / Fold change vs veh, DFFB / RFU, FOXP1 / Fold change vs veh, FOXP1 / RFU, CARD8 / Fold change vs veh, CARD8 / RFU, STRN3 / Fold change vs veh, STRN3 / RFU, ADK / Fold change vs veh, ADK / RFU, RASSF2 / Fold change vs veh, RASSF2 / RFU, WIPF1 / Fold change vs veh, WIPF1 / RFU, LARP1B / Fold change vs veh, LARP1B / RFU, RASA1 / Fold change vs veh, RASA1 / RFU, RB1 / Fold change vs veh, RB1 / RFU, PPFIA1 / Fold change vs veh, PPFIA1 / RFU, MAT2A / Fold change vs veh, MAT2A / RFU, CCT5 / Fold change vs veh, CCT5 / RFU, WDR92 / Fold change vs veh, WDR92 / RFU, CUX1 / Fold change vs veh, CUX1 / RFU, TTC7A / Fold change vs veh, TTC7A / RFU, TMEM135 / Fold change vs veh, TMEM135 / RFU, DEPTOR / Fold change vs veh, DEPTOR / RFU, CPM / Fold change vs veh, CPM / RFU, DNAJB6 / Fold change vs veh, DNAJB6 / RFU, CACNA2D3 / Fold change vs veh, CACNA2D3 / RFU, DTX4 / Fold change vs veh, DTX4 / RFU, TFCP2 / Fold change vs veh, TFCP2 / RFU, GMCL1 /// GMCL1P1 / Fold change vs veh, GMCL1 /// GMCL1P1 / RFU, AEBP2 / Fold change vs veh, AEBP2 / RFU, SNHG1 /// SNORD22 /// SNORD25 /// SNORD26 /// SNORD27 /// SNORD28 /// SNORD29 /// SNORD31 / Fold change vs veh, SNHG1 /// SNORD22 /// SNORD25 /// SNORD26 /// SNORD27 /// SNORD28 /// SNORD29 /// SNORD31 / Fold change (Aza/veh), C12orf56 (ProbeSet 11735607_a_at) / Fold change (ACY-1035/veh), C12orf56 (ProbeSet 11735607_a_at) / Fold change (Aza/veh), FGFR1OP (ProbeSet 11751329_s_at) / Fold change (ACY-1035/veh), FGFR1OP (ProbeSet 11751329_s_at) / Fold change (Aza/veh), VPS36 (ProbeSet 11739960_a_at) / Fold change (ACY-1035/veh), VPS36 (ProbeSet 11739960_a_at) / RFU SYPL1 (11715823_x_at) / Fold change /veh SYPL1 (11715823_x_at) / RFU IGFBP7 (11715501_s_at) / Fold change /veh IGFBP7 (11715501_s_at) / RFU REEP3 (11722064_at) / Fold change /veh REEP3 (11722064_at) / RFU IGLL1 (11728026_x_at) / Fold change /veh IGLL1 (11728026_x_at): dose or concentration left out as unconfirmed
# Conditions: MV-4-11 cells, 48 hours
smiles,measurement,value
Nc1ncn([C@@H]2O[C@H](CO)[C@@H](O)[C@H]2O)c(=O)n1 [azacitidine],RFU VCAN (11755009_s_at),15.18 RFU
